The values below come from PubChem BioAssay AID270 (DTP/NCI, 2004).

For this test, the system named is BDF1 mice, s.c. Lewis lung carcinoma, T/C %. Briefly: NCI In Vivo Anticancer Drug Screen. Data for tumor model Lewis Lung Carcinoma (subcutaneous) in B6D2F1 (BDF1) mice. A digest of the protocol: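 Tumor-bearing mice were treated with test compound, and either survival or tumor size was recorded. Values are the treated-group measurement divided by that of the vehicle-treated control group.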

Where [1] appears, read: endpoint: mean tumor weight, dose: 50.0 mg/kg/injection, schedule: Q01DX011 (ip), vehicle: carboxymethylcellulose (CMC), higher = larger tumour.
Where [2] appears, read: endpoint: median survival time, dose: 6.25 mg/kg/injection, schedule: Q01DX009 (ip), vehicle: Klucel (hydroxypropylcellulose) (HPC), higher = longer survival.
Setting [3] is: endpoint: median survival time, dose: 50.0 mg/kg/injection, schedule: Q01DX009 (ip), vehicle: saline with Tween-80, higher = longer survival.

Where “and” joins values, the source holds several entries; their conditions need not be identical. Equal values may be shown once. Results filed as inconclusive are left out. *1 amine or outer side, *2 acyl side, *3 side chain or, on linkers, in order; H or OH if unused. Where a SMILES comes first, the peptide text is derived from it. Bridges are numbered along the chain shown (N, C = ends). Roman numbers before positions name the chains, in order. [ ]: non-standard residue; d: D form. Actinocin(1to9) = Cc1c2oc3c(C)ccc(C(=O)[*:2])c3nc-2c(C(=O)[*:1])c(N)c1=O; X1 = O=C1CC(C(=O)[*:2])N([*:1])C1; NMeV = CN[CH](C(=O)O)C(C)C; Sar = CNCC(=O)O

`O=c1[nH]c2cc(Cl)c(Cl)cc2o1`: the T/C reads like this: (endpoint: mean tumor weight, dose: 22.0 mg/kg/injection, schedule: Q01DX011 (ip), vehicle: carboxymethylcellulose (CMC), higher = larger tumour) 79 % of control; (endpoint: mean tumor weight, dose: 35.0 mg/kg/injection, schedule: Q01DX011 (ip), vehicle: carboxymethylcellulose (CMC), higher = larger tumour) 93 % of control; under setting [1], 95 % of control; (endpoint: mean tumor weight, dose: 75.0 mg/kg/injection, schedule: Q01DX011 (ip), vehicle: carboxymethylcellulose (CMC), higher = larger tumour) 77 % of control and 84 % of control; (endpoint: mean tumor weight, dose: 115.0 mg/kg/injection, schedule: Q01DX011 (ip), vehicle: carboxymethylcellulose (CMC), higher = larger tumour) 114 % of control.
Consider `Nc1nncs1`, for which, under setting [2], the T/C is 117 % of control and 122 % of control.
Turning to `COc1ccc(-c2ccc(OC)c(OC)c2OC)c(N)c1`, the T/C is, setting by setting: (endpoint: mean tumor weight, dose: 375.0 mg/kg/injection, schedule: Q01DX011 (ip), vehicle: carboxymethylcellulose (CMC), higher = larger tumour) 58 % of control; (endpoint: mean tumor weight, dose: 500.0 mg/kg/injection, schedule: Q01DX011 (ip), vehicle: carboxymethylcellulose (CMC), higher = larger tumour) 89 % of control; (endpoint: mean tumor weight, dose: 625.0 mg/kg/injection, schedule: Q01DX011 (ip), vehicle: carboxymethylcellulose (CMC), higher = larger tumour) 74 % of control; (endpoint: mean tumor weight, dose: 750.0 mg/kg/injection, schedule: Q01DX011 (ip), vehicle: carboxymethylcellulose (CMC), higher = larger tumour) 56 % of control; (endpoint: median survival time, dose: 25.0 mg/kg/injection, schedule: Q01DX009 (ip), vehicle: saline with Tween-80, higher = longer survival) 101 % of control; under setting [3], 107 % of control. Also, the T/C was 108 % of control (endpoint: median survival time, dose: 100.0 mg/kg/injection, schedule: Q01DX009 (ip), vehicle: saline with Tween-80, higher = longer survival) and 106 % of control (endpoint: median survival time, dose: 200.0 mg/kg/injection, schedule: Q01DX009 (ip), vehicle: saline with Tween-80, higher = longer survival).
As for `CC1(C)CCC(NC(=O)N(CCF)N=O)CC1`, the T/C (endpoint: median survival time, dose: 6.0 mg/kg/injection, schedule: Q01DX009 (ip), vehicle: saline with Tween-80, higher = longer survival) was 97 % of control; the T/C (endpoint: median survival time, dose: 9.0 mg/kg/injection, schedule: Q01DX009 (ip), vehicle: saline with Tween-80, higher = longer survival) is 113 % of control; the T/C (endpoint: median survival time, dose: 20.0 mg/kg/injection, schedule: Q01DX009 (ip), vehicle: saline with Tween-80, higher = longer survival) is 265 % of control; the T/C (endpoint: median survival time, dose: 30.0 mg/kg/injection, schedule: Q01DX009 (ip), vehicle: saline with Tween-80, higher = longer survival) is 236 % of control; the T/C under setting [3] was 88 % of control.
Consider `O=NN(CCCl)C(=O)NCC1CCC(CNC(=O)N(CCCl)N=O)CC1` (stereo not given), for which the T/C (endpoint: mean tumor weight, dose: 400.0 mg/kg/injection, schedule: Q01DX001 (ip), vehicle: carboxymethylcellulose (CMC), higher = larger tumour) is 50 % of control; the T/C (endpoint: mean tumor weight, dose: 600.0 mg/kg/injection, schedule: Q01DX001 (ip), vehicle: carboxymethylcellulose (CMC), higher = larger tumour) was 36 % of control; the T/C (endpoint: median survival time, dose: 3.12 mg/kg/injection, schedule: Q01DX009 (ip), vehicle: Klucel (hydroxypropylcellulose) (HPC), higher = longer survival) is 92 % of control; the T/C under setting [2] is 93 % of control; the T/C (endpoint: median survival time, dose: 12.5 mg/kg/injection, schedule: Q01DX009 (ip), vehicle: Klucel (hydroxypropylcellulose) (HPC), higher = longer survival) is 98 % of control; the T/C (endpoint: median survival time, dose: 25.0 mg/kg/injection, schedule: Q01DX009 (ip), vehicle: Klucel (hydroxypropylcellulose) (HPC), higher = longer survival) is 100 % of control.
Take `S=c1c2[nH]cnc2ncn1CCSC1=NC=NC2=NC=NC21` (stereo not given): the T/C (endpoint: mean tumor weight, dose: 50.0 mg/kg/injection, schedule: Q01DX011 (ip), vehicle: other, higher = larger tumour) was 96 % of control; the T/C (endpoint: mean tumor weight, dose: 100.0 mg/kg/injection, schedule: Q01DX011 (ip), vehicle: other, higher = larger tumour) is 53 % of control; the T/C (endpoint: mean tumor weight, dose: 200.0 mg/kg/injection, schedule: Q01DX011 (ip), vehicle: other, higher = larger tumour) was 61 % of control; the T/C (endpoint: mean tumor weight, dose: 400.0 mg/kg/injection, schedule: Q01DX011 (ip), vehicle: other, higher = larger tumour) is 37 % of control.
In the case of `COc1ccc(/C=C/c2ccc3ccccc3[n+]2C)c(OC)c1OC`, the T/C (endpoint: median survival time, dose: 0.31 mg/kg/injection, schedule: Q01DX009 (ip), vehicle: Klucel (hydroxypropylcellulose) (HPC), higher = longer survival) was 117 % of control; the T/C (endpoint: median survival time, dose: 0.62 mg/kg/injection, schedule: Q01DX009 (ip), vehicle: Klucel (hydroxypropylcellulose) (HPC), higher = longer survival) is 108 % of control; the T/C (endpoint: median survival time, dose: 1.25 mg/kg/injection, schedule: Q01DX009 (ip), vehicle: Klucel (hydroxypropylcellulose) (HPC), higher = longer survival) is 107 % of control; the T/C (endpoint: median survival time, dose: 2.5 mg/kg/injection, schedule: Q01DX009 (ip), vehicle: Klucel (hydroxypropylcellulose) (HPC), higher = longer survival) is 89 % of control and 92 % of control.
For `O=C1OC(C(O)CO)C(O)=C1O` (stereo not given), the T/C runs as follows: (endpoint: median survival time, dose: 1.0 mg/kg/injection, schedule: Q02DX009 (ip), vehicle: saline, higher = longer survival) 113 % of control; (endpoint: median survival time, dose: 1000.0 mg/kg/injection, schedule: Q02DX009 (ip), vehicle: saline, higher = longer survival) 87 % of control; (endpoint: median survival time, dose: 10000.0 mg/kg/injection, schedule: Q02DX009 (ip), vehicle: saline, higher = longer survival) 10 % of control.
For `Cc1c2oc3c(C)ccc(C(=O)NC4C(=O)NC(C(C)C)C(=O)N5CCCC5C(=O)N(C)CC(=O)N(C)C(C(C)C)C(=O)OC4C)c3nc-2c(C(=O)NC2C(=O)NC(C(C)C)C(=O)N3CC(=O)CC3C(=O)N(C)CC(=O)N(C)C(C(C)C)C(=O)OC2C)c(N)c1=O` (stereo not given) (I: TV[X1][Sar][NMeV] / II: TVP[Sar][NMeV]; ester I:1-I:C, II:1-II:C; linker I:N-II:N via Actinocin(1to9); configuration not given here), the T/C reads like this: (endpoint: median survival time, dose: 3.1 micrograms/kg/injection, schedule: Q01DX009 (ip), vehicle: water, higher = longer survival) 112 % of control; (endpoint: median survival time, dose: 6.2 micrograms/kg/injection, schedule: Q01DX009 (ip), vehicle: water, higher = longer survival) 111 % of control; (endpoint: median survival time, dose: 9.4 micrograms/kg/injection, schedule: Q04DX003 (ip), vehicle: water, higher = longer survival) 108 % of control; (endpoint: median survival time, dose: 12.5 micrograms/kg/injection, schedule: Q01DX009 (ip), vehicle: water, higher = longer survival) 87 % of control; (endpoint: median survival time, dose: 18.8 micrograms/kg/injection, schedule: Q04DX003 (ip), vehicle: water, higher = longer survival) 109 % of control; (endpoint: median survival time, dose: 37.5 micrograms/kg/injection, schedule: Q04DX003 (ip), vehicle: water, higher = longer survival) 108 % of control.
Regarding `COCC(O)Cn1ccnc1[N+](=O)[O-]` (stereo not given), the T/C was 81 % of control (endpoint: median survival time, dose: 500.0 mg/kg/injection, schedule: Q01DX001 (ip), vehicle: saline, higher = longer survival); 77 % of control and 93 % of control (endpoint: median survival time, dose: 600.0 mg/kg/injection, schedule: Q01DX001 (ip), vehicle: saline, higher = longer survival); 74 % of control and 91 % of control and 94 % of control (endpoint: median survival time, dose: 1000.0 mg/kg/injection, schedule: Q01DX001 (ip), vehicle: saline, higher = longer survival).
Turning to `CC[CH2][Pb]([Cl])([CH2]CC)[CH2]CC`, the T/C runs as follows: (endpoint: median survival time, dose: 0.01 mg/kg/injection, schedule: Q01DX009 (ip), vehicle: DMSO, higher = longer survival) 101 % of control; (endpoint: median survival time, dose: 0.02 mg/kg/injection, schedule: Q01DX009 (ip), vehicle: DMSO, higher = longer survival) 93 % of control; (endpoint: median survival time, dose: 0.04 mg/kg/injection, schedule: Q01DX009 (ip), vehicle: DMSO, higher = longer survival) 98 % of control; (endpoint: median survival time, dose: 0.04 mg/kg/injection, schedule: Q01DX009 (ip), vehicle: Klucel (hydroxypropylcellulose) (HPC), higher = longer survival) 94 % of control; (endpoint: median survival time, dose: 0.08 mg/kg/injection, schedule: Q01DX009 (ip), vehicle: DMSO, higher = longer survival) 107 % of control; (endpoint: median survival time, dose: 0.09 mg/kg/injection, schedule: Q01DX009 (ip), vehicle: Klucel (hydroxypropylcellulose) (HPC), higher = longer survival) 106 % of control. The T/C (endpoint: median survival time, dose: 0.18 mg/kg/injection, schedule: Q01DX009 (ip), vehicle: Klucel (hydroxypropylcellulose) (HPC), higher = longer survival) is 100 % of control; the T/C (endpoint: median survival time, dose: 0.37 mg/kg/injection, schedule: Q01DX009 (ip), vehicle: DMSO, higher = longer survival) is 108 % of control; the T/C (endpoint: median survival time, dose: 0.37 mg/kg/injection, schedule: Q01DX009 (ip), vehicle: Klucel (hydroxypropylcellulose) (HPC), higher = longer survival) is 104 % of control.
In the case of `C[CH2][Pb]([CH2]C)([CH2]C)[O]C(=O)COC`, the T/C was 92 % of control (endpoint: median survival time, dose: 1.56 mg/kg/injection, schedule: Q01DX009 (ip), vehicle: Klucel (hydroxypropylcellulose) (HPC), higher = longer survival) and 96 % of control (endpoint: median survival time, dose: 3.13 mg/kg/injection, schedule: Q01DX009 (ip), vehicle: Klucel (hydroxypropylcellulose) (HPC), higher = longer survival).
Take `O=c1cnn(C2OC(CO)C(O)C2O)c(=O)[nH]1` (stereo not given): the T/C is 150 % of control (endpoint: median survival time, dose: 150.0 mg/kg/injection, schedule: Q01DX009 (ip), vehicle: Klucel (hydroxypropylcellulose) (HPC), higher = longer survival) and 157 % of control (endpoint: median survival time, dose: 600.0 mg/kg/injection, schedule: Q01DX009 (ip), vehicle: Klucel (hydroxypropylcellulose) (HPC), higher = longer survival).
Regarding `OCC1=CCN2CC[C@@H](O)[C@@H]12`, the T/C is 122 % of control (endpoint: mean tumor weight, dose: 25.0 mg/kg/injection, schedule: Q01DX011 (ip), vehicle: carboxymethylcellulose (CMC), higher = larger tumour); 117 % of control under setting [1]; 111 % of control (endpoint: mean tumor weight, dose: 100.0 mg/kg/injection, schedule: Q01DX011 (ip), vehicle: carboxymethylcellulose (CMC), higher = larger tumour); 106 % of control (endpoint: mean tumor weight, dose: 200.0 mg/kg/injection, schedule: Q01DX011 (ip), vehicle: carboxymethylcellulose (CMC), higher = larger tumour).
Turning to `CN(C)N=Nc1n[nH]nc1C(N)=O`, the T/C (endpoint: median tumor weight (est.), dose: 134.5 mg/kg/injection, schedule: Q01DX009 (ip), vehicle: saline, higher = larger tumour) was 102 % of control; the T/C (endpoint: median tumor weight (est.), dose: 269.0 mg/kg/injection, schedule: Q01DX009 (ip), vehicle: saline, higher = larger tumour) was 81 % of control; the T/C (endpoint: median tumor weight (est.), dose: 538.0 mg/kg/injection, schedule: Q01DX009 (ip), vehicle: saline, higher = larger tumour) was 79 % of control.
